# Measurements reported in EP0097031B1, “Nonapeptide and decapeptide analogs of LHRH useful as LHRH antagonists, their preparation and compositions containing them” (SYNTEX (U.S.A.) INC., priority 1982, dated 1988).
# dPhe(4-Cl) = N[C@H](Cc1ccc(Cl)cc1)C(=O)O; d2Nal = N[C@H](Cc1ccc2ccccc2c1)C(=O)O; dDeh = not defined here
# System: female mice
# Test: acute subcutaneous toxicity in mice (21-day observation)
# Assay type: in vivo
# Conditions: administered subcutaneously to each of 6 female mice, 0.3 m.g. per animal (or 12 mg/kg body weight)
# Procedure: Compounds 8,16,18,19 and 24 from Example 8 were administered subcutaneously to each of 6 female mice at a dose level of 0.3 m.g. per animal (or 12 mg/kg body weight). During an observation period of 21 days, no deaths were recorded in any of the treatment groups.
# The acute subcutaneous LD50 in mice is thus greater than 12 mg/kg for these compounds.
row,Substance,deaths recorded during an observation period of 21 days
1,N-Ac-D-Nal(2)-D-p-Cl-Phe-D-Trp-Ser-Tyr-D-Deh-Leu-Arg-Pro-D-AlaNH2 [Compound 19],no deaths
2,N-Ac-D-Nal(2)-D-p-Cl-Phe-D-Trp-Ser-Tyr-D-Deh-Leu-Arg-Pro-GlyNH2 ({Ac-d2Nal-dPhe(4-Cl)-dW-Ser-Tyr-dDeh}-LRPG-NH2; reading uncertain; also: printed as N-Ac-D-Nal(2)-D-p-Cl-Phe-D-Trp-Ser-Tyr-D-Deh-Leu-Arg-Pro-GlyNH2) [Compound 18],no deaths
3,N-Ac-D-Nal(2)-D-p-F-Phe-D-Trp-Ser-Tyr-D-Deh-Leu-Arg-Pro-GlyNH2 [Compound 16],no deaths
4,N-Ac-D-p-Cl-Phe-D-p-Cl-Phe-D-Trp-Ser-Tyr-D-Dph-Leu-Arg-Pro-D-AlaNH2 [Compound 8],no deaths
